What all share (assay): biochemical
Assay [1] has as its target T1, MMP-1 (Homo sapiens, UniProt P03956).
T1 construct: made in house; host or cells: transfected HT-1080 cells (provided by Dr. Harold Welgus, Washington University)
T1 sequence (P03956 100-469): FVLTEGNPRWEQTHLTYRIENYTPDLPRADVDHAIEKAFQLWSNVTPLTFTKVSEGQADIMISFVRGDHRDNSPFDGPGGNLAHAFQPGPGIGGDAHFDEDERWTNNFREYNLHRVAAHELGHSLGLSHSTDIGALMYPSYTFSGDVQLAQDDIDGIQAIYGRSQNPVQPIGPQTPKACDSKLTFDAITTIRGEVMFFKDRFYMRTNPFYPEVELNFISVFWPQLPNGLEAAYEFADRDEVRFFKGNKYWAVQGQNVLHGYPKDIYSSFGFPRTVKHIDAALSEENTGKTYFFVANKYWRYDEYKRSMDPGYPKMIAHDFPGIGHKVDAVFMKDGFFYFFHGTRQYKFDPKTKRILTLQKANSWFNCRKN
The note with it: recombinant human MMP-1, MCA peptide substrate 4 μM, pH 7.5, room temperature; read-out: MMP-1 IC50. On the procedure: (§1) The compounds prepared in the manner described in the Examples above were assayed for activity by an in vitro assay. […] Briefly, 4-aminophenylmercuric acetate (APMA) or trypsin-activated MMPs were incubated with various concentrations of the inhibitor compound at room temperature for 5 minutes.
(§2) The expressed enzyme was purified first over a heparin agarose column and then over a chelating zinc chloride column. The proenzyme was activated by APMA for use in the assay.
(§3) MMP-1 expressed in transfected HT-1080 cells was provided by Dr. Harold Welgus of Washington University, St. Louis, Mo. The enzyme was also activated using APMA and was then purified over a hydroxamic acid column. Dr. Welgus also provided transfected HT-1080 cells that expressed MMP-9. Transfected cells that expressed MMP-2 were provided by Dr. Gregory Goldberg, also of Washington University. Studies with MMP-7 were carried out at pH 7.5 in the presence of 0.02% 2-mercaptoethanol using conditions otherwise similar to those used for the other enzymes. The enzyme was obtaind from a hMMP-7-expressing E. coli clone that was a gift of Dr. Steven Shapiro of Washington University, St. Louis, Mo. Further specifics for preparation and use of these enzymes can be found in the scientific literature describing these enzymes. See, for example, Enzyme Nomenclature, Academic Press, San Diego, Calif. […] The enzyme substrate is a methoxycoumarin-containing polypeptide having the following sequence:
(§4) MCA-ProLeuGlyLeuDpaAlaArgNH2, wherein MCA is methoxycoumarin and Dpa is 3-(2,4-dinitrophenyl)-L-2,3-diaminopropionyl alanine.
(§5) The buffer used for assays contained 100 mM Tris-HCl, 100 mM NaCl, 10 mM CaCl2 and 0.05 percent polyethyleneglycol (23) lauryl ether at a pH value of 7.5. Assays were carried out at room temperature, and dimethyl sulfoxide (DMSO) at a final concentration of 1 percent was used to dissolve inhibitor compound.
(§6) The assayed inhibitor compound in DMSO/buffer solution was compared to an equal amount of DMSO/buffer with no inhibitor as control using Microfluor White Plates (Dynatech). The inhibitor or control solution was maintained in the plate for 10 minutes and the substrate was added to provide a final concentration of 4 μM.
(§7) Inhibition was measured as a reduction in fluorescent intensity as a function of inhibitor concentration, using a Perkin Elmer L550 plate reader. The IC50 values were calculated from those values. The results are set forth in the Inhibition Table A, below, reported in terms of IC50 to three significant figures, where appropriate.

The target in assay [2] is T2, MMP-13 (Homo sapiens, UniProt P45452).
T2 construct: made in house; host or cells: baculovirus / insect cells
The settings on record: recombinant human MMP-13, MCA peptide substrate 4 μM, pH 7.5, room temperature; read-out: MMP-13 IC50. On the procedure: as §1, §2, §3, §4, §5, §6, §7

Assay [3] concerns the target T3, MMP-2 (Homo sapiens, UniProt P08253).
T3 construct: made in house; provided by Dr. Gregory Goldberg, Washington University
T3 sequence (P08253 110-660): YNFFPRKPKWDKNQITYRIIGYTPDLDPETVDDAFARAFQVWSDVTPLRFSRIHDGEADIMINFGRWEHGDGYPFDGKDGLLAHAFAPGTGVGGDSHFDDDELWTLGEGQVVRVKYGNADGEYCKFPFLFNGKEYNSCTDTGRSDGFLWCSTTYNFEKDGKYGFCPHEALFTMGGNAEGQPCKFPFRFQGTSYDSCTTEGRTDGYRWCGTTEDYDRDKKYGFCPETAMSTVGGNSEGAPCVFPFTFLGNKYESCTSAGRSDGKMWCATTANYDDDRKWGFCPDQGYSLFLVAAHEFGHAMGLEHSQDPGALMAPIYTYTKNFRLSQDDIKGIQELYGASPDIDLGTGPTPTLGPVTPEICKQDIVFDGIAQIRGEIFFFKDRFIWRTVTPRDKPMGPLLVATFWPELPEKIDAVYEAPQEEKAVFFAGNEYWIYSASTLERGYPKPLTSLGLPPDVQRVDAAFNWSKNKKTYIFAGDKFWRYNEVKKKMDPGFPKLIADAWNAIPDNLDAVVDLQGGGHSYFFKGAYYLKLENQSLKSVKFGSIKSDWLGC
The note with it: recombinant human MMP-2, MCA peptide substrate 4 μM, pH 7.5, room temperature; read-out: MMP-2 IC50. On the procedure: as §1, §2, §3, §4, §5, §6, §7

Structures can show the parent of a compound that is named as a salt.

For the molecule `O=C(NO)C1(S(=O)(=O)c2ccc(N3CCC(Oc4ccc(OC(F)(F)F)cc4)CC3)cc2)CCOCC1` [Example 480], the IC50 in assay [1] was greater than 10000 nM; in assay [2], 18.6 nM; in assay [3], 155 nM.
Consider `O=C(NO)C1(S(=O)(=O)c2ccc(N3CCC(OCc4ccc(COCC(F)(F)C(F)(F)F)cc4)CC3)cc2)CCOCC1` [Example 565], for which the values for the half-inhibitory concentration (IC50) in assay [1], in assay [2] and in assay [3] were greater than 10000 nM, 5.5 nM and 700 nM, respectively.
For `O=C(NO)C1(S(=O)(=O)c2ccc(N3CCC(OCc4ccc(Cl)cc4)CC3)cc2)CCN(C2CC2)CC1` [Example 419], in that order: greater than 10000 nM, 4.2 nM and 400 nM.
For `CCC(C)OCc1ccc(COC2CCN(c3ccc(S(=O)(=O)C4(C(=O)NO)CCOCC4)cc3)CC2)cc1` (stereo not drawn) [Example 556], in that order: greater than 10000 nM, 4.5 nM and 170 nM.
For `COCCN1CCN(c2ccc(S(=O)(=O)C3(C(=O)NO)CCOCC3)cc2)CC1` [Example 645], in that order: greater than 10000 nM, 370 nM and 1200 nM.
On to `O=C(c1ccc(OC(F)(F)F)cc1)N1CCN(c2ccc(S(=O)(=O)C3(C(=O)NO)CCOCC3)cc2)CC1` [Example 595], for which the half-inhibitory concentration (IC50) in assay [1] is greater than 10000 nM; in assay [2] it was 270 nM; in assay [3] it was 425 nM.
In the same order, the values of `O=C(NO)C1(S(=O)(=O)c2ccc(Oc3ccc(OC(F)(F)F)cc3)cc2)CCN(C(=S)Nc2cccnc2)CC1` [Example 201] are greater than 10000 nM, 0.3 nM and 0.2 nM.
In the same order, the values of `O=C(NO)C1(S(=O)(=O)c2ccc(Oc3ccc(SC(F)(F)F)cc3)cc2)CCNCC1` [Example 231, N-Hydroxy-4-[[4-[4-[(trifluoromethyl)thio]phenoxy]phenyl]-sulfonyl]-4-piperidinecarboxamide, Monohydrochloride] are greater than 10000 nM, 0.2 nM and 0.1 nM.
In the same order, the values of `O=C(NO)C1(S(=O)(=O)c2ccc(N3CCC(OCc4ccccc4Cl)CC3)cc2)CCOCC1` [Example 574] are greater than 10000 nM, 10.6 nM and 220 nM.
Regarding `CCOc1cccc(OC2CCN(c3ccc(S(=O)(=O)C4(C(=O)NO)CCOCC4)cc3)CC2)c1` [Example 640], the results for the 50% inhibitory concentration (IC50) in assay [1], in assay [2] and in assay [3] were greater than 10000 nM, 4.2 nM and 15.8 nM, respectively.
In the same order, the values of `CN1CCN(CC(=O)N2CCC(C(=O)NO)(S(=O)(=O)c3ccc(Oc4ccc(C(F)(F)F)cc4)cc3)CC2)CC1` [Example 324] are greater than 10000 nM, 0.7 nM and 0.4 nM.
In the same order, the values of `O=C(NO)C1(S(=O)(=O)c2ccc(N3CCN(S(=O)(=O)c4cccc(C(F)(F)F)c4)CC3)cc2)CCOCC1` [Example 676] are greater than 10000 nM, 7.7 nM and 90 nM.
As for `O=C(Nc1cccc(C(F)(F)F)c1)OC1CCN(c2ccc(S(=O)(=O)C3(C(=O)NO)CCOCC3)cc2)CC1` [Example 188, N-Hydroxy-4[[[4-[(3-trifluoromethyl)phenylcarbamoxy]piperidyl]phenyl]sulfonyl]-1-tetrahydropyrancarboxamide], the figures for the IC50 in assay [1], in assay [2] and in assay [3] were greater than 10000 nM, 7 nM and 235 nM, respectively.
Consider `O=C(NO)C1(S(=O)(=O)c2ccc(N3CCC(OCc4ccc(F)cc4F)CC3)cc2)CCOCC1` [Example 558], for which the IC50 in assay [1] was greater than 10000 nM; in assay [2], 4.5 nM; in assay [3], 66.4 nM.
In the same order, the values of `O=C(NO)C1(S(=O)(=O)c2ccc(OC3CN(C(c4ccccc4)c4ccccc4)C3)cc2)CCOCC1` [Example 794] are greater than 10000 nM, 1500 nM and 2900 nM.
For the molecule `COc1ccc(COC2CCC(Oc3ccc(S(=O)(=O)C4(C(=O)NO)CCOCC4)cc3)C2)cc1` (stereo not drawn) [Example 648], the IC50 was greater than 10000 nM in assay [1], 25.8 nM in assay [2] and 110 nM in assay [3].
For `N#Cc1ccccc1-c1ccc(COC2CCN(c3ccc(S(=O)(=O)C4(C(=O)NO)CCOCC4)cc3)CC2)cc1` [Example 557], in that order: greater than 10000 nM, 16.9 nM and 200 nM.
`CC1CCCN(c2ccc(S(=O)(=O)C3(C(=O)NO)CCOCC3)cc2)C1` (stereo not drawn) [Example 496]: the IC50 in assay [1] was greater than 10000 nM; in assay [2], 30.7 nM; in assay [3], 200 nM.
In the same order, the values of `Cc1ccc(OC2CCN(c3ccc(S(=O)(=O)C4(C(=O)NO)CCOCC4)cc3)CC2)c([N+](=O)[O-])c1` [Example 551] are greater than 10000 nM, 9 nM and 140 nM.
On to `O=C(NO)C1(S(=O)(=O)c2ccc(N3CCCC3)cc2)CCSCC1` [Example 155], for which the values for the IC50 in assay [1], in assay [2] and in assay [3] were greater than 10000 nM, 130 nM and 240 nM, respectively.
Consider `COCCN1CCN(CC(=O)N2CCC(C(=O)NO)(S(=O)(=O)c3ccc(N4CCC(C(=O)N5CC(C)CC(C)C5)CC4)cc3)CC2)CC1` (stereo not drawn) [Example 307], for which the IC50 in assay [1] was greater than 10000 nM; in assay [2] it was 40 nM; in assay [3], greater than 10000 nM.
As for `COCCNCCCCC(=O)N1CCC(C(=O)NO)(S(=O)(=O)c2ccc(Oc3ccc(C(F)(F)F)cc3)cc2)CC1` [Example 347], the IC50 in assay [1] is greater than 10000 nM; in assay [2] it was 3 nM; in assay [3], 0.7 nM.
For `O=C(c1cc(F)cc(F)c1)C1CCN(c2ccc(S(=O)(=O)C3(C(=O)NO)CCOCC3)cc2)CC1` [Example 724], in that order: greater than 10000 nM, 28.6 nM and 300 nM.
In the same order, the values of `O=C(NO)C1(S(=O)(=O)c2ccc(N3CCC(OCc4ccccc4C(F)(F)F)CC3)cc2)CCOCC1` [Example 174] are greater than 10000 nM, 23.5 nM and 800 nM.
For `O=C(NO)C1(S(=O)(=O)c2ccc(N3CCCN(S(=O)(=O)c4ccc(C(F)(F)F)cc4)CC3)cc2)CCOCC1` [Example 697], in that order: greater than 10000 nM, 18.1 nM and 1500 nM.
Consider `CCCN(CCCCC(=O)N1CCC(C(=O)NO)(S(=O)(=O)c2ccc(Oc3ccc(C(F)(F)F)cc3)cc2)CC1)CC1CC1` [Example 346], for which the IC50 is greater than 10000 nM in assay [1], 1.2 nM in assay [2] and 0.2 nM in assay [3].
In the same order, the values of `O=C(NO)C1(S(=O)(=O)c2ccc(N3CCN(S(=O)(=O)c4ccccc4C(F)(F)F)CC3)cc2)CCOCC1` [Example 675] are 6000 nM, 13 nM and 88 nM.

The record behind these values is patent US6750228B1, “Aromatic sulfone hydroxamic acid metalloprotease inhibitor” (priority 1997, dated 2004).
